Measured values from patent US20210330611A1, “THERAPY FOR NEUROLOGICAL DISEASES/DISORDERS” (priority 2020, published 2021).
Counter-ions that a name gives are not always drawn. Like-named read-outs stand apart in the source and are kept apart here.

Key:
[1] = test system: fibrin-induced microglia activation; experiment: Image-based assay of fibrin-induced microglia activation (HTS and dose response); format: cell-based, rat; conditions: primary microglia HTS, fibrin stimulation; for inhibition at 10 µM: Rattus norvegicus, Microglia, read-out: Fibrin % inhibition
[2] = test system: LPS-induced microglia activation; experiment: Image-based assay of LPS-induced microglia activation (HTS and dose response); format: cell-based, rat; conditions: for inhibition at 10 µM: Rattus norvegicus, Microglia, read-out: LPS % inhibition
[3] = test system: fibrin- and LPS-induced microglia activation; experiment: cells; format: cell-based, rat
primary rat microglia [4] = test system: primary rat microglia
primary rat microglia [5] = experiment: Cell toxicity (dead cells, size <150 μm2) in coated fibrin (cFib) assay; conditions: primary microglia HTS;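 also: share of dead cells sized under 150 µm2 at 10 µM in fibrin-stimulated microglia HTS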
[6] = primary microglia HTS, LPS stimulation, compounds at 10 μM
[7] = classification by fibrin and LPS inhibition, HTS at 10 μM
[8] = fibrin assay, dead cells (size <150 μm2), compounds at 10 μM
[9] = cell size >800 μm2 as marker of activation
[10] = classification by fibrin and LPS inhibition in HTS
[11] = fibrin stimulation, cell size <150 μm2 as marker of toxicity
[12] = quadrant by fibrin and LPS inhibition, HTS at 10 μM
[13] = fibrin assay, dead cells (size <150 μm2)

Compound: CC(=O)OCC(CCn1cnc2cnc(N)nc21)COC(C)=O [Famciclovir]
- inhibition at 10 µM ([1]; compounds at 10 μM): -22%
- inhibition at 10 µM [2, 6]: 14%
- Quadrant (FIG. 5b) [3, 7]: Q4
- LPS % cell toxicity (primary rat microglia [4]; rat): 1%
- Fibrin % cell toxicity (primary rat microglia [5]; [8]): 0%

Compound: CCC(=O)NCC[C@@H]1CCc2ccc3c(c21)CCO3 [Ramelteon]
- inhibition at 10 µM [1, 9]: 25%
- inhibition at 10 µM ([2]; 48 h): 20%
- Quadrant (FIG. 5b) [3, 10]: Q4
- LPS % cell toxicity (primary rat microglia [4]; rat): 0%
- Fibrin % cell toxicity (primary rat microglia [5]; [11]): 0%

Compound: CCC(=O)O[C@H]1[C@H](O[C@@H]2[C@@H](C)[C@H](O[C@H]3C[C@@](C)(OC)[C@@H](O)[C@H](C)O3)[C@@H](C)C(=O)O[C@H](CC)[C@@](C)(O)[C@H](O)[C@@H](C)C(=O)[C@H](C)C[C@@]2(C)O)O[C@H](C)C[C@@H]1N(C)C [Erythromycin Propionate]
- inhibition at 10 µM ([1]; compounds at 10 μM): 23%
- inhibition at 10 µM [2, 6]: 27%
- Quadrant (FIG. 5b) [3, 7]: Q4
- LPS % cell toxicity (primary rat microglia [4]; rat): 0%
- Fibrin % cell toxicity (primary rat microglia [5]; [8]): 1%

Compound: Cc1cc(-c2ccc(/N=N/c3ccc4c(S(=O)(=O)O)cc(S(=O)(=O)O)c(N)c4c3O)c(C)c2)ccc1/N=N/c1ccc2c(S(=O)(=O)O)cc(S(=O)(=O)O)c(N)c2c1O [Evans Blue]
- inhibition at 10 µM ([1]; compounds at 10 μM): -37%
- inhibition at 10 µM [2, 6]: 7%
- Quadrant (FIG. 5b) [3, 7]: Q4
- LPS % cell toxicity (primary rat microglia [4]; rat): 0%
- Fibrin % cell toxicity (primary rat microglia [5]; [8]): 0%

Compound: NC(=O)c1cnccn1 [Pyrazinamide]
- inhibition at 10 µM [1, 9]: -20%
- inhibition at 10 µM ([2]; 48 h): 13%
- Quadrant (FIG. 5b) [3, 10]: Q4
- LPS % cell toxicity (primary rat microglia [4]; rat): 0%
- Fibrin % cell toxicity (primary rat microglia [5]; [11]): 0%

Compound: COc1ccc(C(=O)c2ccccc2O)c(O)c1 [Dioxybenzone]
- inhibition at 10 µM ([1]; compounds at 10 μM): -4%
- inhibition at 10 µM [2, 6]: 16%
- Quadrant (FIG. 5b) [3, 7]: Q4
- LPS % cell toxicity (primary rat microglia [4]; rat): 0%
- Fibrin % cell toxicity (primary rat microglia [5]; [8]): 1%

Compound: Nc1ncnc2c1ncn2[C@@H]1O[C@H](CO)[C@@H](O)[C@H]1O [Adenosine]
- inhibition at 10 µM ([1]; compounds at 10 μM): -6%
- inhibition at 10 µM [2, 6]: 3%
- Quadrant (FIG. 5b) [3, 12]: Q4
- LPS % cell toxicity (primary rat microglia [4]; rat): 1%
- Fibrin % cell toxicity (primary rat microglia [5]; [13]): 1%

Compound: C[C@H](CCC(=O)[O-])[C@H]1CC[C@H]2[C@@H]3C(=O)C[C@@H]4CC(=O)CC[C@]4(C)[C@H]3CC(=O)[C@]12C.[Na+]
- Fibrin % inhibition [1, 9]: 21%
- LPS % inhibition [2]: 28%
- Quadrant (FIG. 5b) [3, 10]: Q4
- LPS % cell toxicity (primary rat microglia [4]): 1%
- Fibrin % cell toxicity (primary rat microglia [5]; [11]): 1%

Compound: Cc1cc(CC(C)CC(C)(C)C)n(O)c(=O)c1.NCCO (centres unmarked) [Piroctone Olamine]
- Fibrin % inhibition [1, 9]: 44%
- LPS % inhibition [2]: 39%
- Quadrant (FIG. 5b) [3, 10]: Q4
- LPS % cell toxicity (primary rat microglia [4]): 1%
- Fibrin % cell toxicity (primary rat microglia [5]; [11]): 1%

Compound: O=S(=O)([O-])CCSSCCS(=O)(=O)[O-].[Na+].[Na+] [Dimesna]
- Fibrin % inhibition ([1]; compounds at 10 μM): −19%
- LPS % inhibition [2, 6]: 13%
- Quadrant (FIG. 5b) [3, 7]: Q4
- LPS % cell toxicity (primary rat microglia [4]): 0%
- Fibrin % cell toxicity (primary rat microglia [5]; [8]): 1%

Compound: COc1cc2nc(N3CCN(C(=O)C4COc5ccccc5O4)CC3)nc(N)c2cc1OC (centres unmarked) [Doxazosin]
- inhibition at 10 µM ([1]; compounds at 10 μM): -26%
- inhibition at 10 µM [2, 6]: 6%
- Quadrant (FIG. 5b) [3, 7]: Q4
- LPS % cell toxicity (primary rat microglia [4]; rat): 0%
- Fibrin % cell toxicity (primary rat microglia [5]; [8]): 0%

Compound: O=C1OC2(c3ccccc31)c1cc(I)c(O)c(I)c1Oc1c2cc(I)c(O)c1I [Erythrosine Sodium]
- inhibition at 10 µM ([1]; compounds at 10 μM): 1%
- inhibition at 10 µM [2, 6]: 0%
- Quadrant (FIG. 5b) [3, 7]: Q4
- LPS % cell toxicity (primary rat microglia [4]; rat): 0%
- Fibrin % cell toxicity (primary rat microglia [5]; [8]): 1%

Compound: NC[C@H]1O[C@H](O[C@H]2[C@H](O[C@@H]3O[C@H](CO)[C@@H](O)[C@H]3O)[C@@H](O)[C@H](N)C[C@@H]2N)[C@H](N)[C@@H](O)[C@@H]1O.O=S(=O)(O)O [Ribostamycin Sulfate]
- Fibrin % inhibition [1, 9]: −16%
- LPS % inhibition [2]: 13%
- Quadrant (FIG. 5b) [3, 10]: Q4
- LPS % cell toxicity (primary rat microglia [4]): 0%
- Fibrin % cell toxicity (primary rat microglia [5]; [11]): 0%

Compound: Oc1ccc(Cl)cc1Cc1cc(Cl)ccc1O [Dichlorophene, Dichlorophen]
- Fibrin % inhibition ([1]; compounds at 10 μM): −23%
- LPS % inhibition [2, 6]: 15%
- Quadrant (FIG. 5b) [3, 7]: Q4
- LPS % cell toxicity (primary rat microglia [4]): 0%
- Fibrin % cell toxicity (primary rat microglia [5]; [8]): 1%

Compound: CCN(CC)C(=O)N1CCN(C)CC1 [Diethylcarbamazine]
- inhibition at 10 µM ([1]; compounds at 10 μM): -26%
- inhibition at 10 µM [2, 6]: 11%
- Quadrant (FIG. 5b) [3, 7]: Q4
- LPS % cell toxicity (primary rat microglia [4]; rat): 0%
- Fibrin % cell toxicity (primary rat microglia [5]; [8]): 0%

Compound: O=C(O)CSCC(=O)NC1CCSC1=O (centres unmarked) [Erdosteine]
- inhibition at 10 µM ([1]; compounds at 10 μM): 2%
- inhibition at 10 µM [2, 6]: 13%
- Quadrant (FIG. 5b) [3, 7]: Q4
- LPS % cell toxicity (primary rat microglia [4]; rat): 0%
- Fibrin % cell toxicity (primary rat microglia [5]; [8]): 1%

Compound: FC(F)(Cl)C(F)(F)Cl [Cryoflurane]
- Fibrin % inhibition ([1]; compounds at 10 μM): −4%
- LPS % inhibition [2, 6]: 12%
- Quadrant (FIG. 5b) [3, 7]: Q4
- LPS % cell toxicity (primary rat microglia [4]): 0%
- Fibrin % cell toxicity (primary rat microglia [5]; [8]): 1%

Compound: CN1CC(=O)NC1=N [Creatinine]
- inhibition at 10 µM ([1]; compounds at 10 μM): -3%
- inhibition at 10 µM [2, 6]: 10%
- Quadrant (FIG. 5b) [3, 7]: Q4
- LPS % cell toxicity (primary rat microglia [4]; rat): 0%
- Fibrin % cell toxicity (primary rat microglia [5]; [8]): 1%

Compound: CCC1(C)OC(=O)N(C)C1=O (centres unmarked) [Paramethadione]
- inhibition at 10 µM [1, 9]: -15%
- inhibition at 10 µM ([2]; 48 h): 3%
- Quadrant (FIG. 5b) [3, 10]: Q4
- LPS % cell toxicity (primary rat microglia [4]; rat): 0%
- Fibrin % cell toxicity (primary rat microglia [5]; [11]): 0%

Compound: CC1(C)S[C@@H]2[C@H](NC(=O)[C@H](NC(=O)N3CCNC3=O)c3ccccc3)C(=O)N2[C@H]1C(=O)O [Azlocillin]
- Fibrin % inhibition ([1]; compounds at 10 μM, 10 µM): −14%
- LPS % inhibition ([2]; primary microglia HTS, LPS stimulation, compounds at 10 μM, 10 µM): 6%
- Quadrant (FIG. 5b) [3, 12]: Q4
- LPS % cell toxicity (primary rat microglia [4]; rat): 1%
- Fibrin % cell toxicity (primary rat microglia [5]; [13]): 1%

Compound: COc1cc2nc(N(C)CCCNC(=O)C3CCCO3)nc(N)c2cc1OC.Cl (centres unmarked) [Alfuzosin Hydrochloride, Alfuzosin]
- Fibrin % inhibition ([1]; compounds at 10 μM): 1%
- LPS % inhibition [2, 6]: 18%
- Quadrant (FIG. 5b) [3, 12]: Q4
- LPS % cell toxicity (primary rat microglia [4]): 0%
- Fibrin % cell toxicity (primary rat microglia [5]; [13]): 1%

Compound: Nc1nc(NC2CC2)c2ncn([C@H]3C=C[C@@H](CO)C3)c2n1 [Abacavir Sulfate]
- inhibition at 10 µM ([1]; compounds at 10 μM): -2%
- inhibition at 10 µM [2, 6]: 3%
- Quadrant (FIG. 5b) [3, 12]: Q4
- LPS % cell toxicity (primary rat microglia [4]; rat): 0%
- Fibrin % cell toxicity (primary rat microglia [5]; [13]): 1%

Compound: CCOc1ccccc1C(N)=O [Ethenzamide]
- inhibition at 10 µM ([1]; compounds at 10 μM): -15%
- inhibition at 10 µM [2, 6]: 5%
- Quadrant (FIG. 5b) [3, 7]: Q4
- LPS % cell toxicity (primary rat microglia [4]; rat): 0%
- Fibrin % cell toxicity (primary rat microglia [5]; [8]): 1%

Compound: O=C(O)CCCCCCCC(=O)O [Azelaic Acid]
- inhibition at 10 µM ([1]; compounds at 10 μM): 6%
- inhibition at 10 µM [2, 6]: 19%
- Quadrant (FIG. 5b) [3, 12]: Q4
- LPS % cell toxicity (primary rat microglia [4]; rat): 0%
- Fibrin % cell toxicity (primary rat microglia [5]; [13]): 0%

Compound: Nc1nccs1 [Aminothiazole]
- inhibition at 10 µM ([1]; compounds at 10 μM): -31%
- inhibition at 10 µM [2, 6]: 17%
- Quadrant (FIG. 5b) [3, 12]: Q4
- LPS % cell toxicity (primary rat microglia [4]; rat): 1%
- Fibrin % cell toxicity (primary rat microglia [5]; [13]): 1%

Compound: CCOc1ccc(Cc2nccc3cc(OCC)c(OCC)cc23)cc1OCC [Ethaverine Hydrochloride]
- inhibition at 10 µM ([1]; compounds at 10 μM): 41%
- inhibition at 10 µM [2, 6]: 24%
- Quadrant (FIG. 5b) [3, 7]: Q4
- LPS % cell toxicity (primary rat microglia [4]; rat): 1%
- Fibrin % cell toxicity (primary rat microglia [5]; [8]): 1%

Compound: CCN(CC)CCOC(=O)C(c1ccccc1)C1CCCCC1 (centres unmarked) [Drofenine Hydrochloride]
- inhibition at 10 µM ([1]; compounds at 10 μM): -44%
- inhibition at 10 µM [2, 6]: 9%
- Quadrant (FIG. 5b) [3, 7]: Q4
- LPS % cell toxicity (primary rat microglia [4]; rat): 0%
- Fibrin % cell toxicity (primary rat microglia [5]; [8]): 1%

Compound: N=C(N)c1ccc(/N=N/Nc2ccc(C(=N)N)cc2)cc1 [Diminazene]
- inhibition at 10 µM ([1]; compounds at 10 μM): -58%
- inhibition at 10 µM [2, 6]: 11%
- Quadrant (FIG. 5b) [3, 7]: Q4
- LPS % cell toxicity (primary rat microglia [4]; rat): 0%
- Fibrin % cell toxicity (primary rat microglia [5]; [8]): 0%
